In patent publication US8232263B2, “17,20(Z)-dehydro vitamin D analogs and their uses” (Wisconsin Alumni Research Foundation, priority 2004, dated 2012):
Entries after “also recorded” stand apart in the source; their conditions may differ.

Assays:
[1] = biological target: T1, full-length recombinant rat vitamin D receptor (Rattus norvegicus, UniProt P13053); test: Vitamin D receptor binding, competition with [3H]-1,25(OH)2D3; conditions: FIG. 1
T1 construct: Full-length recombinant rat receptor was expressed in E. coli BL21 (DE3) Codon Plus RIL cells; histidine tag (C); made in house; host or cells: E. coli BL21 (DE3) Codon Plus RIL
T1 sequence (P13053 1-423): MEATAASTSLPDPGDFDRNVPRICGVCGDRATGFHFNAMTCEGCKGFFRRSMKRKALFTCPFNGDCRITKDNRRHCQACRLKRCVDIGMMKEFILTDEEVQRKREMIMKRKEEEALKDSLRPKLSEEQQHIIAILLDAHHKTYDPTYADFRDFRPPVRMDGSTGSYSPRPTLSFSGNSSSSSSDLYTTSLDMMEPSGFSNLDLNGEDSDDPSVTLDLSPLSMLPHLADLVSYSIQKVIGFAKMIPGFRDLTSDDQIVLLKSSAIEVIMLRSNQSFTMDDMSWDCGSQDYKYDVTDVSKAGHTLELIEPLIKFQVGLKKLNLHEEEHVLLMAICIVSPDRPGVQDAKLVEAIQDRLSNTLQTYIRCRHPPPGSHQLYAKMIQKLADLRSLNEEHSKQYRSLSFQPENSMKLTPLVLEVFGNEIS
Protocol: Full-length recombinant rat receptor was expressed in E. coli BL21 (DE3) Codon Plus RIL cells and purified to homogeneity using two different column chromatography systems. The first system was a nickel affinity resin that utilizes the C-terminal histidine tag on this protein. The protein that was eluted from this resin was further purified using ion exchange chromatography (S-Sepharose Fast Flow). Aliquots of the purified protein were quick frozen in liquid nitrogen and stored at −80° C. until use. For use in binding assays, the protein was diluted in TEDK50 (50 mM Tris, 1.5 mM EDTA, pH7.4, 5 mM DTT, 150 mM KCl) with 0.1% Chaps detergent. The receptor protein and ligand concentration was optimized such that no more than 20% of the added radiolabeled ligand was bound to the receptor.
Radiolabeled and unlabeled ligands were added to 100 mcl of the diluted protein at a final ethanol concentration of ≦10%, mixed and incubated overnight on ice to reach binding equilibrium. The following day, 100 mcl of hydroxylapatite slurry (50%) was added to each tube and mixed at 10-minute intervals for 30 minutes. The hydroxylapaptite was collected by centrifugation and then washed three times with Tris-EDTA buffer (50 mM Tris, 1.5 mM EDTA, pH 7.4) containing 0.5% Titron X-100. […] Total binding was determined from the tubes containing only radiolabeled ligand.

[2] = tested on: Human promyelocytic leukemia (HL60) cells; test: HL-60 differentiation (nitro blue tetrazolium reduction); format: cell-based; conditions: FIG. 2; for EC50: HL60 cells, four days after treatment
Protocol: The study drugs were dissolved in ethanol and the concentrations determined using UV spectrophotometry. Serial dilutions were prepared so that a range of drug concentrations could be tested without changing the final concentration of ethanol (≦0.2%) present in the cell cultures.
Human promyelocytic leukemia (HL60) cells were grown in RPMI-1640 medium containing 10% fetal bovine serum. The cells were incubated at 37° C. in the presence of 5% CO2.
HL60 cells were plated at 1.2×10^5 cells/ml. Eighteen hours after plating, cells in duplicate were treated with drug. Four days later, the cells were harvested and a nitro blue tetrazolium reduction assay was performed (Collins et al., 1979; J. Exp. Med. 149:969-974). The percentage of differentiated cells was determined by counting a total of 200 cells and recording the number that contained intracellular black-blue formazan deposits. Verification of differentiation to monocytic cells was determined by measuring phagocytic activity (data not shown).

[3] = tested on: 24-hydroxylase (24Ohase) gene promoter in ROS 17/2.8 (bone) cells; test: In vitro transcription assay (luciferase reporter); format: cell-based; conditions: FIG. 3; for EC50: ROS 17/2.8 cells, 24Ohase promoter-luciferase, sixteen hours after dosing, read-out: EC50, transcriptional activity in bone cells
Protocol: Transcription activity was measured in ROS 17/2.8 (bone) cells that were stably transfected with a 24-hydroxylase (24Ohase) gene promoter upstream of a luciferase reporter gene (Arbour et al., 1998). Cells were given a range of doses. Sixteen hours after dosing the cells were harvested and luciferase activities were measured using a luminometer. RLU=relative luciferase units.

[4] = Bone calcium mobilization (serum calcium) in vitamin D-deficient rats; format: in vivo, Sprague-Dawley rats
Protocol: (§1) Male, weanling Sprague-Dawley rats were placed on Diet 11 (Suda et al, J. Nutr. 100:1049, 1970) (0.47% Ca)+vitamins AEK for one week followed by Diet 11 (0.02% Ca)+vitamins AEK for 3 weeks. The rats were then switched to the same diet containing 0.47% Ca for one week followed by two weeks on the same diet containing 0.02% Ca. Dose administration began during the last week on 0.02% calcium diet. Four consecutive ip doses were given approximately 24 hours apart. Twenty-four hours after the last dose, blood was collected from the severed neck and the concentration of serum calcium determined by atomic absorption spectrometry as a measure of bone calcium mobilization. The first 10 cm of the intestine was also collected for intestinal calcium transport analysis using the everted gut sac method.
(§2) Antagonism was tested by administering a combination of 1,25(OH)2D3 and the compound to the animal simultaneously.

[5] = Intestinal calcium transport, everted gut sac method, in vitamin D-deficient rats; format: in vivo, Sprague-Dawley rats; conditions: VIT-III 260, 2340 or 7020 pmol/day versus 1,25(OH)2D3 260 pmol/day, FIG. 5
Protocol: as §1, §2

SMILES | binding to the receptor as compared to 1,25-(OH)2D3 ([1]; full length recombinant rat VDR) | Ki ([1]; full-length recombinant rat VDR) | HL-60 cell differentiation potency as compared to 1,25(OH)2D3 [2] | EC50 ([2]; Homo sapiens, HL-60, 96 h) | transcriptional activity in bone cells as compared to 1α,25-dihydroxyvitamin D3 [3] | EC50 [3] | mobilization of bone calcium (serum calcium) ([4]; 260 pmol/day for 4 consecutive days) | mobilization of bone calcium (serum calcium) ([4]; 2340 pmol/day and then 7020 pmol/day) | intestinal calcium transport activity as compared to 1,25(OH)2D3 [5] | EC50 [2] | serum calcium levels ([4]; native hormone at the dosage tested, FIG. 4)
C=C1[C@H](O)CC(=C/C=C2\CCC[C@]3(C)/C(=C(/C)CCCC(C)(C)O)CC[C@@H]23)C[C@H]1O [VIT-III, 17(Z)-1α,25-dihydroxy-17(20)-dehydro-2-methylene-19-norvitamin D3] | bound equally well | 0.05 nM | as potent as 1,25(OH)2D3 | 0.37 nM | about the same transcriptional activity | 0.0044 nM | significant mobilization of bone calcium | progressively increasing serum calcium levels well above the effects seen with 1,25(OH)2D3 | significant increase in intestinal calcium transport activity; also recorded: relatively high activity | – | –
C=C1/C(=C\C=C2/CCC[C@]3(C)[C@@H]([C@H](C)CCCC(C)(C)O)CC[C@@H]23)C[C@@H](O)C[C@@H]1O [1α,25-dihydroxyvitamin D3, reference compound] | – | – | – | – | – | 0.29 nM | – | – | – | 1.3 nM | increased serum calcium levels
